These results are taken from ChEMBL document CHEMBL2074281, “Drug excretion mediated by a new prototype of polyspecific transporter” (Nature, 1994).

Broadly, the Ki is the equilibrium dissociation constant of an inhibitor or competing ligand from its target. For orientation: Km means the concentration of substrate that gives half-maximal velocity.

Sequences and labels used below:
T1: Solute carrier family 22 member 1 (Rattus norvegicus, UniProt Q63089)
T1 sequence (Q63089 whole entry): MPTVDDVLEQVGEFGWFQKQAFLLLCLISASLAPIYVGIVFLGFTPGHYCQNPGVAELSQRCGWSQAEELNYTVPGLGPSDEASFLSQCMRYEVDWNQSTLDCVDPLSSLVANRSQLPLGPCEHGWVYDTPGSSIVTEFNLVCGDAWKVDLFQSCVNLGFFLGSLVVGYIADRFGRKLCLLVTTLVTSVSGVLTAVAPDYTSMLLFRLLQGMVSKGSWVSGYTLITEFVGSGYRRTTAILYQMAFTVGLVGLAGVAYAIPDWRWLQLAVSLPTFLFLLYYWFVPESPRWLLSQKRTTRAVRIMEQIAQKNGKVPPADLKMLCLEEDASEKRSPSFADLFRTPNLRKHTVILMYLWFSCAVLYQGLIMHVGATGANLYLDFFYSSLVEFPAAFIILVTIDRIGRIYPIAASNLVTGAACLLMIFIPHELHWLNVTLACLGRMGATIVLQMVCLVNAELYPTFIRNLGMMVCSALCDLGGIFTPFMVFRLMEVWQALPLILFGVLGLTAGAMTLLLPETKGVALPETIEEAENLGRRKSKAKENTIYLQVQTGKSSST

B1: Solute carrier family 22 member 1 (Rattus norvegicus) (protein)
chain: MPTVDDVLEQVGEFGWFQKQAFLLLCLISASLAPIYVGIVFLGFTPGHYCQNPGVAELSQRCGWSQAEELNYTVPGLGPSDEASFLSQCMRYEVDWNQSTLDCVDPLSSLVANRSQLPLGPCEHGWVYDTPGSSIVTEFNLVCGDAWKVDLFQSCVNLGFFLGSLVVGYIADRFGRKLCLLVTTLVTSVSGVLTAVAPDYTSMLLFRLLQGMVSKGSWVSGYTLITEFVGSGYRRTTAILYQMAFTVGLVGLAGVAYAIPDWRWLQLAVSLPTFLFLLYYWFVPESPRWLLSQKRTTRAVRIMEQIAQKNGKVPPADLKMLCLEEDASEKRSPSFADLFRTPNLRKHTVILMYLWFSCAVLYQGLIMHVGATGANLYLDFFYSSLVEFPAAFIILVTIDRIGRIYPIAASNLVTGAACLLMIFIPHELHWLNVTLACLGRMGATIVLQMVCLVNAELYPTFIRNLGMMVCSALCDLGGIFTPFMVFRLMEVWQALPLILFGVLGLTAGAMTLLLPETKGVALPETIEEAENLGRRKSKAKENTIYLQVQTGKSSST

The first data set deals with T1, Solute carrier family 22 member 1. Briefly: TP_TRANSPORTER: inhibition of TEA uptake in Xenopus laevis oocytes. Format: functional, cell-based, Oocyte.
With `COC(=O)[C@H]1[C@H]2C[C@@H]3c4[nH]c5cc(OC)ccc5c4CCN3C[C@H]2C[C@@H](OC(=O)c2cc(OC)c(OC)c(OC)c2)[C@@H]1OC` [RESERPINE], the Ki was over 20 µM.

The molecule `CNC(=O)c1cccnc1` [NICOTINYL METHYLAMIDE] gave a Ki of 1000 µM.

The molecule `C[C@]12C[C@H](O)[C@H]3[C@@H](CCC4=CC(=O)CC[C@@]43C)[C@@H]1CC[C@@H]2C(=O)CO` [CORTICOSTERONE] displayed a Ki of over 10 µM.

In the case of `CC[n+]1c(CC2C=C(C)N=C(c3ccccc3)N2C)ccc2ccccc21` (stereo unspecified) [Cyanine-863], the affinity corresponds to a Ki of 0.13 µM.

`COc1cc(C(O)CNC(C)C)ccc1O` (stereo unspecified) [METIPRENALINE] registered a Ki of 43 µM. Compared with the last molecule, the Ki is about 330-fold higher.

Substrate in the next data set: CC[N+](CC)(CC)CC
Briefly: cells, lysate or membranes named.
Take B1: the Michaelis-Menten constant (Km) is 95 µM.
